Test results as given in patent publication US7749996B2, “Heterotricyclic metalloprotease inhibitors” (Alantos Pharmaceutical Holdings, Inc., priority 2006, dated 2010).

Legend:
Type in all cases: biochemical
[1] = target: T1, catalytic domain of MMP-13 enzyme (Homo sapiens, UniProt P45452); assay: Assay for determining MMP-13 inhibition (fluorescent substrate); conditions: Table 1, activity group
T1 construct: stock solution of catalytic domain of MMP-13 enzyme (produced by Alantos or commercially available from Invitek (Berlin), Cat.# 30100812); purchased Invitek (Berlin) 30100812
Description: (§1) The typical assay for MMP-13 activity is carried out in assay buffer comprised of 50 mM Tris, pH 7.5, 150 mM NaCl, 5 mM CaCl2 and 0.05% Brij-35. Different concentrations of tested compounds are prepared in assay buffer in 50 μL aliquots. […] The mixture of enzyme and compound in assay buffer is thoroughly mixed and incubated for 10 min at room temperature. […] The time-dependent increase in fluorescence is measured at the 320 nm excitation and 390 nm emission by automatic plate multireader. The IC50 values are calculated from the initial reaction rates.

[2] = target: T2, catalytic domain of MMP-3 enzyme (Homo sapiens, UniProt P08254); assay: Assay for determining MMP-3 inhibition (NFF-3 fluorescent substrate); conditions: Table 3, activity group
T2 construct: stock solution of the catalytic domain of MMP-3 enzyme (Biomol, Cat. No. SE-109); purchased Biomol SE-109
T2 sequence (P08254 100-272 limits assumed): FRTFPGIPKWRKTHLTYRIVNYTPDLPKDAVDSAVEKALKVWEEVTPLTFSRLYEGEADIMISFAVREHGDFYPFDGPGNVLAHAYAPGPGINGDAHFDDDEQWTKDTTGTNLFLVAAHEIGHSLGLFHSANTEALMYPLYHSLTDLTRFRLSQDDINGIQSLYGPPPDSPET
Description: as §1, with “MMP-3” for “MMP-13”, “MES,” for “Tris,”, “6.0, 10” for “7.5, 150 mM NaCl, 5”, “330” for “320”, “by an” for “by”

activated MMP-8 enzyme = target: T3, activated MMP-8 enzyme (Homo sapiens, UniProt P22894); assay: Assay for determining MMP-8 inhibition (fluorescent substrate); conditions: Table 2, activity group
T3 construct: purchased Calbiochem 444229
T3 sequence (P22894 101-467): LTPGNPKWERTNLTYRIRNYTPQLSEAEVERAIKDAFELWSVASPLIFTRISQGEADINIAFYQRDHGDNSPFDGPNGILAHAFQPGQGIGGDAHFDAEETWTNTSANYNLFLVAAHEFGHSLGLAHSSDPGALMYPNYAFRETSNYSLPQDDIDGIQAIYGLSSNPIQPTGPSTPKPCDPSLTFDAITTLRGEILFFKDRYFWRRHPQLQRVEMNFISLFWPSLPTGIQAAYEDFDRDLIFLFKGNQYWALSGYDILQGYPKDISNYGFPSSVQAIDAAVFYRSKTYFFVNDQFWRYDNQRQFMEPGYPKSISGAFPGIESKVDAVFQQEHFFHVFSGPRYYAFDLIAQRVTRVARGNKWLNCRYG
Description: as §1, with “MMP-8” for “MMP-13”, “37° C.” for “room temperature.”, “by an” for “by”, “multireader at 37° C.” for “multireader.”

Row | SMILES | IC50 [1] [µM] | IC50 [2] [µM] | IC50 (activated MMP-8 enzyme) [µM]
1 | O=C1COc2ccc(CNC(=O)c3nc4ccc5c(c4c(=O)[nH]3)CCC5)cc2N1 [2/245] | < 0.1 | 0.25 to 20 | –
2 | O=C1COc2ccc(CNC(=O)c3nc4sc5c(c4c(=O)[nH]3)CCS(=O)(=O)C5)cc2N1 [2/103] | < 0.1 | < 0.25 | < 0.25
3 | O=C1COc2ccc(CNC(=O)c3nc4sc5c(c4c(=O)[nH]3)CCCS5(=O)=O)cc2N1 [Example 22] | < 0.1 | 0.25 to 20 | 0.25 to 20
4 | O=C1COc2ccc(CNC(=O)c3nc4sc5c(c4c(=O)[nH]3)CCC[S+]([O-])C5)cc2N1 (centres unmarked) [Example 26] | < 0.1 | 0.25 to 20 | < 0.25
5 | CC1c2c(sc3nc(C(=O)NCc4ccc5c(c4)NC(=O)CO5)[nH]c(=O)c23)CS1(=O)=O (centres unmarked) [22/2] | < 0.1 | 0.25 to 20 | 0.25 to 20
6 | COc1ccc2c(c1)CCc1sc3nc(C(=O)NCc4ccc5c(c4)NC(=O)CO5)[nH]c(=O)c3c1-2 [2/107] | < 0.1 | 0.25 to 20 | < 0.25
7 | O=C(O)CNC(=O)CC1CCCc2sc3nc(C(=O)NCc4ccc5c(c4)NC(=O)CO5)[nH]c(=O)c3c21 (centres unmarked) [Example 15] | < 0.1 | 0.25 to 20 | < 0.25
8 | O=C(O)CNC(=O)C1CCc2sc3nc(C(=O)NCc4ccc5c(c4)NC(=O)CO5)[nH]c(=O)c3c21 (centres unmarked) [15/2] | < 0.1 | 0.25 to 20 | < 0.25
9 | O=C1COc2ccc(CNC(=O)c3nc4sc5c(c4c(=O)[nH]3)CN(C(=O)CC(F)(F)F)C5)cc2N1 [Example 42/1] | – | 0.25 to 20 | 0.25 to 20
10 | O=C1COc2ccc(CNC(=O)c3nc4sc5c(c4c(=O)[nH]3)CC(C(=O)O)C5)cc2N1 (centres unmarked) [4/15] | < 0.1 | 0.25 to 20 | < 0.25
11 | CC1SCc2sc3nc(C(=O)NCc4ccc5c(c4)CN(c4c(N)c(=O)c4=O)CC5)[nH]c(=O)c3c21 (centres unmarked) [2/132] | < 0.1 | 0.25 to 20 | < 0.25
12 | O=C1COc2ccc(CNC(=O)C3NC(=O)c4c(sc5c4CCCN(CC4CCCCO4)C5=O)N3)cc2N1 (centres unmarked) [2/188] | < 0.1 | 0.25 to 20 | < 0.25
13 | O=C1COc2ccc(CNC(=O)c3nc4sc5c(c4c(=O)[nH]3)CN(c3ncccn3)C5)cc2N1 [Example 43] | < 0.1 | < 0.25 | –
14 | CCOC(=O)C1CCc2sc3nc(C(=O)NCc4ccc5c(c4)NC(=O)CO5)[nH]c(=O)c3c2C1 (centres unmarked) [2/208] | < 0.1 | 0.25 to 20 | –
15 | CS(=O)(=O)N1Cc2sc3nc(C(=O)NCc4ccc5c(c4)NC(=O)CO5)[nH]c(=O)c3c2C1 [42/2] | < 0.1 | < 0.25 | < 0.25
16 | N#CC1CCc2sc3nc(C(=O)NCc4ccc5c(c4)NC(=O)CO5)[nH]c(=O)c3c21 (centres unmarked) [Example 19] | < 0.1 | 0.25 to 20 | < 0.25
17 | O=C1COc2ccc(CNC(=O)c3nc4sc5c(c4c(=O)[nH]3)CCOCC5)cc2N1 [2/211] | < 0.1 | 0.25 to 20 | < 0.25
18 | CC(C)(C)OC(=O)N1CCc2sc3nc(C(=O)NCc4ccc5c(c4)NC(=O)CO5)[nH]c(=O)c3c2CC1 [2/171] | < 0.1 | 0.25 to 20 | < 0.25
19 | CC(C)CNC(=O)C1Cc2sc3nc(C(=O)NCc4ccc5c(c4)NC(=O)CO5)[nH]c(=O)c3c2C1 (centres unmarked) [2/231] | < 0.1 | 0.25 to 20 | –
20 | CCOC(=O)C1Cc2sc3nc(C(=O)NCc4ccc5c(c4)NC(=O)CO5)[nH]c(=O)c3c2C1 (centres unmarked) [2/210] | < 0.1 | 0.25 to 20 | –
21 | O=C(O)CC1CCCc2sc3nc(C(=O)NCc4ccc5c(c4)NC(=O)CO5)[nH]c(=O)c3c21 (centres unmarked) [Example 3] | < 0.1 | 0.25 to 20 | 0.25 to 20
22 | CCOC(=O)C1CCc2sc3nc(C(=O)NCc4ccc5c(c4)CN(c4c(N)c(=O)c4=O)CC5)[nH]c(=O)c3c2C1 (centres unmarked) [2/209] | < 0.1 | 0.25 to 20 | < 0.25
23 | Cc1snc2sc3c(=O)[nH]c(C(=O)NCc4ccc5c(c4)NC(=O)CO5)nc3c12 [Example 39/7] | 0.1 to 20 | 0.25 to 20 | 0.25 to 20
24 | CC(=O)N1CCc2c(sc3nc(C(=O)NCc4ccc5c(c4)CN(c4c(N)c(=O)c4=O)CC5)[nH]c(=O)c23)C1 [2/95] | < 0.1 | 0.25 to 20 | < 0.25
25 | Nc1c(N2CCc3ccc(CNC(=O)c4nc5sc6c(c5c(=O)[nH]4)CCS(=O)(=O)C6)cc3C2)c(=O)c1=O [2/104] | – | < 0.25 | < 0.25
26 | O=C1COc2ccc(CNC(=O)c3nc4sc5c(c4c(=O)[nH]3)CCCS(=O)(=O)C5)cc2N1 [Example 22/1] | < 0.1 | 0.25 to 20 | < 0.25
27 | NC(=O)CC1CCCc2sc3nc(C(=O)NCc4ccc5c(c4)NC(=O)CO5)[nH]c(=O)c3c21 (centres unmarked) [2/240] | – | 0.25 to 20 | –
28 | O=C1COc2ccc(CNC(=O)c3nc4ccc5c(c4c(=O)[nH]3)OCO5)cc2N1 [Example 28] | < 0.1 | < 0.25 | –
29 | NC(=O)C1Cc2sc3nc(C(=O)NCc4ccc5c(c4)CN(c4c(N)c(=O)c4=O)CC5)[nH]c(=O)c3c2C1 (centres unmarked) [2/232] | – | 0.25 to 20 | –
30 | COc1ccc2c(c1)CCc1sc3nc(C(=O)NCc4ccc5c(c4)CN(c4c(N)c(=O)c4=O)CC5)[nH]c(=O)c3c1-2 [2/108] | < 0.1 | 0.25 to 20 | –
